Experiment [1] has as its system MMP-9. Kind of experiment: Gelatin zymography: LPS-activated active expression of MMP-9 in NR8383 cells. The class given is cell-based, rat. To be noted: LPS 1 μg/mL, 24 hours. From the text:
As indicated above, when an inflammatory response occurs in animal's pulmonary tissue, the active inflammatory cells will secret MMPs that will destroy the pulmonary tissue structure, cause more serious pulmonary injury, and lead to the decrement in or the loss of pulmonary functions. […]
Thereafter, the medium of each group was collected and respectively subjected to the following procedures. A 10% polyacrylamide gel containing 0.2% gelatin was used to carry out the sodium dodecyl sulfate polyacrylamide gel electrophoresis (SDS-PAGE). After the electrophoresis was completed, the gel was sequentially soaked in 2.5% Triton X-100 solution for 90 minutes to remove SDS, soaked in distillation-distillation water (ddH2O) for 30 minutes, and placed in a reaction solution (50 mM Tris-HCl buffer containing 10 mM CaCl2 and 0.02% NaN3) at a temperature of 37° C. for 18 hours. After the foregoing reaction was completed, the gel was stained by a Coomassie blue staining solution, and the image of stained gel was taken and subjected to an image analysis. The image intensity (the image intensity was calculated based on the size of area and the shade of color) of highlight band (i.e., the gelatin in this area was degraded by MMPs, wherein the area locating around 95 kD molecular weight) on the gel of each group can reflect the active expression of MMP-9 of rat alveolar macrophage NR8383 cells under different conditions (the relative active expression of MMP-9 was calculated by serving the results of the blank group as 0% and serving that of the control group as 100%).
Rat alveolar macrophage NR8383 cells were divided into twenty-eight groups and separately cultivated with the following media for 24 hours: • (1) Blank group: a macrophage growth medium; • (2) Control group: a macrophage growth medium containing 1 μg/mL LPS; • (3) Positive control group: a macrophage growth medium containing 1 μg/mL LPS and 5 μM Prednisolone (a type of corticosteroid; abbreviated as “Pred”; purchased from Sigma-Aldrich); • (4) Extract C (including five sub-groups): a macrophage growth medium containing 1 μg/mL LPS and the extract C provided by [preparation example A-3-2], wherein the extract C is present in the five sub-groups at a concentration of […] respectively; • (5) Extract D (including five sub-groups): a macrophage growth medium containing 1 μg/mL UPS and the extract D provided by [preparation example A-4-2], wherein the extract D is present in the five sub-groups at a concentration of 0.78, 1.56, 3.13, 6.25 and 12.5 respectively; • (6) Extract E (including five sub-groups): a macrophage growth medium containing 1 μg/mL LPS and the extract E provided from [preparation example A-4-3], wherein the extract E is present in the five sub-groups at a concentration of 0.78, 1.56, 3.13, […], and 12.5 respectively; • (7) DATA group (including five sub-groups): a macrophage growth medium containing 1 μg/mL LPS and the dehydrotrametenolic acid (DTTA) provided by [preparation example C-1], wherein the dehydrotrametenolic acid (DTTA) is present in the five sub-groups at a concentration of 0.39, 0.78, 1.56, 3.13 and 6.25 μg/mL respectively; and • (8) PAA group (including live sub-groups): a macrophage growth medium containing 1 μg/mL LPS and the poricoic acid A (PAA) provided from [preparation example C-1], wherein the poricoic acid A (PAA) is present in the five sub-groups at a concentration of 6.25, 12.5, 25, 50 and 100 respectively.
Thereafter, the medium of each group was collected and analyzed by the analyzing procedures same as that of (1-1).

Experiment [2] relates to TGFβ-induced intracellular accumulation of collagen in myofibroblast WI38 cells. Put plainly: Picrosirius red staining: TGFβ-induced collagen accumulation in WI38 cells. The class given is cell-based. To be noted: 1 ng/mL TGF-β. From the text: As indicated above, the hyperactive expression of MMPs will cause pulmonary injury. Under the most circumstances, the response mechanisms in animals will activate, for example, macrophages will secret TGF-β and TGF-β which can promote the lung fibroblasts to secret collagen, so that the damaged tissues can be recovered. However, the hypersecretion of collagen will also lead to lung fibrosis. To investigate whether FU-LING extracts and its active ingredients are effective in regulating, protecting and/or treating the pulmonary injury-related diseases such as lung fibrosis or not, the Picrosirius red (PSR) staining was conducted as a semi-quantification of collagen, so that the inhibitory rate of FU-LING extract and its active ingredients on the TGFβ-induced intracellular accumulation of collagen in myofibroblast WI38 cells can be determined.
Myofibroblast WI38 cells (purchased from ATCC, product no. CCL75™) were divided into ten groups and separately cultivated with the following media for 48 hours:
(1) Blank group: a myolibroblast growth medium;
(2) Control group: a myofibroblast growth medium containing 1 ng/mL TGF-β (purchased from R&D system);
(3) Positive control group: a myofibroblast growth medium containing 1 ng/mL TGF-β and 200 μg/mL Pirfenidone (abbreviated as “Pir”; purchased from Sigma-Aldrich);
(4) Extract A (including four sub-groups): a myofibroblast growth medium containing 1 ng/mL TGF-β and the extract A provided by [Preparation example A-2-2], wherein the extract A is present in the four sub-groups at a concentration of 12.5, 25, 50 and 100 μg/mL respectively; and
(5) Extract B (including three sub-groups): a myofibroblast growth medium containing 1 ng/ml, TGF-β and the extract B provided by [Preparation example A-2-3], wherein the extract B is present in the […] at a concentration of 12.5, 25 and 50 μg/mL respectively.
Thereafter, the media were replaced by methanol to fix the cells at a temperature of −20° C. for 1 to 2 hours. After that, the cells were washed with PBS, and then stained with 0.1% PSR staining agent (purchased from Sigma-Aldrich) at room temperature for 4 hours. The stained cells were washed with 0.1% acetic acid, and then lysed with 0.1N sodium hydroxide to provide a lysate. The OD540 (i.e., the absorbance at a wavelength of 540 nm) of the lysate was measured. OD540 value of each group represents the content of collagen in each group, reflecting the content of collagen in fibroblast WI38 cells under different circumstances (the relative content of collagen in each group was calculated by serving the result of blank group as 0% and serving the result of control group as 100%).
Myofibroblast WI38 cells were divided into twenty-eight groups and separately cultivated with the following media for 24 hours:
(1) Blank group: a myofibroblast growth medium;
(3) Positive control group; a myofibroblast growth medium containing 1 ng/mL TGF-β and 200 μg/mL Pirfenidone (abbreviated as “Pir”; purchased from Sigma-Aldrich);
(4) Extract C group (including five sub-groups): a myofibroblast growth medium containing 1 ng/mL TGF-β and the extract C provided by [preparation example A-3-2], wherein the extract C is present in the five sub-groups at a concentration of […], 6.25 and 12.5 μg/mL respectively;
(5) Extract D group (including five sub-groups): a myofibroblast growth medium containing 1 ng/mL TGF-β and the extract D provided by [preparation example A-4-2], wherein the extract D is present in the five sub-groups at a concentration of 0.78, 1.56, 3.13, 6.25 and 12.5 μg/mL respectively;
(6) Extract E group (including five sub-groups): a myofibroblast growth medium containing 1 ng/mL TGF-β and the extract E provided by [preparation example A-4-3], wherein the extract E is present in the five sub-groups at a concentration of 0.78, 1.56, 3.13, 6.25 and 12.5 μg/mL respectively; […]

Molecules are shown by their SMILES.

On to `C=C(CC[C@@H](C(=O)O)[C@H]1[C@H](O)C[C@@]2(C)C3=CC[C@H]4C(C)(C)[C@@H](O)CC[C@]4(C)C3=CC[C@]12C)C(C)C` [DTA, dehydrotumulosic acid], for which the “Relative active expression of MMP-9 (%)” value in experiment [1] (Table 4, 3.13 μg/mL) was determined as 79.7%; in experiment [1] (Table 4, 6.25 μg/mL) it was 83.9%; in experiment [1] (Table 4, 12.5 μg/mL), 80.7%.

`CC(C)=CCC[C@@H](C(=O)O)[C@H]1CC[C@@]2(C)C3=CC[C@H]4C(C)(C)[C@@H](O)CC[C@]4(C)C3=CC[C@]12C` [DTTA, dehydrotrametenolic acid]: the “Relative active expression of MMP-9 (%)” value is on record as 91% in experiment [1] (Table 5, 0.39 μg/mL); 99% in experiment [1] (Table 5, 0.78 μg/mL); 79% in experiment [1] (Table 5, 1.56 μg/mL); 72% in experiment [1] (Table 5, 3.13 μg/mL); 74% in experiment [1] (Table 5, 6.25 μg/mL). The “Relative content of collagen (%)” value in experiment [2] (Table 7, 0.39 μg/mL, 24 hours) is on record as 25%; in experiment [2] (Table 7, 0.78 μg/mL, 24 hours), 100%; in experiment [2] (Table 7, 1.56 μg/mL, 24 hours), 25%; in experiment [2] (Table 7, 3.13 μg/mL, 24 hours), 53%; in experiment [2] (Table 7, 6.25 μg/mL, 24 hours), 70%.

`C[C@@H]1C[C@H]2[C@@H]3CCC4=CC(=O)C=C[C@]4(C)[C@@]3(F)[C@@H](O)C[C@]2(C)[C@@]1(O)C(=O)CO` [Dex, dexamethasone, reference compound]: the “Relative active expression of MMP-9 (%)” value in experiment [1] (Table 4, Dex 1 μM, blank 0%, control 100%) was 100%.

On to `Cc1ccc(=O)n(-c2ccccc2)c1` [Pir, Pirfenidone, reference compound], for which the “Relative content of collagen (%)” value in experiment [2] (Table 6, Pir 200 μg/mL, 48 hours, blank 0%, control 100%) amounted to 69%; in experiment [2] (Table 7, Pir 200 μg/mL, 24 hours, blank 0%, control 100%), 0%.

On to `C[C@]12C=CC(=O)C=C1CC[C@@H]1[C@@H]2[C@@H](O)C[C@@]2(C)[C@H]1CC[C@]2(O)C(=O)CO` [Pred, Prednisolone, reference compound], for which the “Effect on inhibiting the 1 μg/mL LPS-induced increment in active expression of MMP-9 (in words)” value in experiment [1] (all tested concentrations) is “cannot inhibit”. Also, the “Relative active expression of MMP-9 (%)” value in experiment [1] (Table 5, Pred 5 μM, blank 0%, control 100%) is recorded as 97%.

The values above are taken from US10973863B2, “Method for regulating, preventing and/or treating pulmonary injury” (SINPHAR PHARMACEUTICAL CO., LTD., priority 2017, dated 2021).
